Experimental data as given in ChEMBL document CHEMBL5036374, “2-Oxooxazolidine-5-carboxamides as Nav1.8 Inhibitors for Treating Pain Disorders, Cough Disorders, and Acute and Chronic Itch Disorders” (ACS Med Chem Lett, 2022).

Assay: Inhibition of human Nav1.8 expressed in HEK293 cells assessed as sodium current flow at holding potential of -90mV by Whole cell-automated patch clamp assay
Assay type: cell-based

Row | Compound | IC50 [nM]
1 | O=C1NC[C@@H](C(=O)NC(c2ccc(Cl)cc2)c2ccc(F)c(Cl)c2)O1 (stereo partly specified) | 0.9
2 | O=C1NC[C@@H](C(=O)NC(c2ccc(F)c(Cl)c2)c2ccc(F)c(Cl)c2)O1 | 0.7
3 | O=C1NC[C@@H](C(=O)NC(c2ccc(Cl)cc2)c2ccc(Cl)c(C(F)(F)F)c2)O1 (stereo partly specified) | 0.4
4 | O=C1NC[C@@H](C(=O)NC(c2ccc(Cl)cc2)c2ccc(Cl)c(C(F)(F)F)n2)O1 (stereo partly specified) | 0.6
5 | O=C1NC[C@@H](C(=O)NC(c2ccc(OC(F)(F)F)c(Cl)c2)c2cnn(C(F)(F)F)c2)O1 (stereo partly specified) | 1.2
6 | Cc1cc(C(NC(=O)[C@@H]2CNC(=O)O2)c2ccc(Cl)cc2)ccc1Cl (stereo partly specified) | 0.6
